Laboratory results: US20050282841A1 (priority 2004, published 2005)

Assays:
Type in all cases: in vivo
Details in all cases: on tomatoes, wheat and vine crops
[1] = tested on: Septoria leaf spot (Septoria tritici); experiment: fungicidal effectiveness against Septoria leaf spot
[2] = tested on: Brown rust (Puccinia recondita); experiment: fungicidal effectiveness against Brown rust
[3] = tested on: Powdery mildew (Erisyphe araminis); experiment: fungicidal effectiveness against Powdery mildew
[4] = tested on: Late blight (Phytophthora infestans)

CO/C=C(/C(=O)OC(c1ccccc1)(c1cncnc1)c1ccc(Cl)cc1Cl)c1ccccc1Oc1cc(Oc2ccccc2C#N)ncn1 (racemic) [Example 1, (RS)-2,4-dichloro-α-(pyrimidin-5-yl)benzhydryl (E)-2-{2-[6-(2-cyanophenoxy)pyrimidin-4-yloxy]phenyl}-3-methoxyacrylate]
effective: effectiveness against fungal pathogen Septoria leaf spot (Septoria tritici) [1] | effectiveness against fungal pathogen Brown rust (Puccinia recondita) [2] | effectiveness against fungal pathogen Powdery mildew (Erisyphe araminis) [3] | effectiveness against fungal pathogen Late blight (Phytophthora infestans) [4]

CO/N=C(/C(=O)OC(CCc1ccc(Cl)cc1)(Cn1cncn1)C(C)(C)C)c1ccccc1CO/N=C(\C)c1cccc(C(F)(F)F)c1 (racemic) [Example 3, (RS)-1-p-chlorophenyl-4,4-dimethyl-3-(1H-1,2,4-triazol-1-ylmethyl)pentan-3-yl (E)-methoxyimino-{(E)-α-[1-(α,α,α-trifluoro-m-tolyl)ethylideneaminooxy]-o-tolyl}acetate]
effective: effectiveness against fungal pathogen Septoria leaf spot (Septoria tritici) [1] | effectiveness against fungal pathogen Brown rust (Puccinia recondita) [2] | effectiveness against fungal pathogen Powdery mildew (Erisyphe araminis) [3] | effectiveness against fungal pathogen Late blight (Phytophthora infestans) [4]

CO/N=C(/C(=O)OC(Cn1cncn1)(c1ccc(Cl)cc1)C(C)C1CC1)c1ccccc1COc1ccccc1C (racemic) [Example 2, (2RS,3RS;2RS,3SR)-2-(4-chlorophenyl)-3-cyclopropyl-1-(1H-1,2,4-triazol-1-yl)butan-2-yl (E)-methoxyimino[α-(o-tolyloxy)-o-tolyl]acetate]
effective: effectiveness against fungal pathogen Septoria leaf spot (Septoria tritici) [1] | effectiveness against fungal pathogen Brown rust (Puccinia recondita) [2] | effectiveness against fungal pathogen Powdery mildew (Erisyphe araminis) [3] | effectiveness against fungal pathogen Late blight (Phytophthora infestans) [4]
